The subject of data set [1] is HDACs (HeLa cell nuclear extracts). Briefly: HDAC enzymatic activity, Biomol Color de Lys system. The format is biochemical. In short, it runs like this: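 HeLa nuclear extract as HDAC source with Color de Lys substrate in 50 mM Tris/Cl pH 8.0, 137 mM NaCl, 2.7 mM KCl, 1 mM MgCl2. Serially diluted compounds reacted 1 h at 25 °C, then developer added; fluorescence (Ex 350–380/Em 440–460) fitted sigmoidally for IC50.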

pIC50: −log10 of the molar value.

By pIC50 is commonly meant −log10 of the IC50, conventionally taken in molar units. A higher pIC50 goes with a small IC50. In general, melting point refers to the temperature of the solid-liquid transition. Take `O=C(CCCCCN1CCN(Cc2cc3nc(-c4cccc5[nH]ncc45)nc(N4CCOCC4)c3s2)CC1)NO` [Compound 12, 6-(4-((2-(1H-indazol-4-yl)-4-morpholinothieno[3,2-d]pyrimidin-6-yl)methyl)piperazin-1-yl)-N-hydroxyhexanamide]: the melting point fell in the range of 123 to 124 °C. Further, in data set [1], the negative logarithm of the IC50 (pIC50) is 6.00 to 7.00.
`O=C(CCCCCCN1CCN(Cc2cc3nc(-c4cccc5[nH]ncc45)nc(N4CCOCC4)c3s2)CC1)NO` [Compound 13, 7-(4-((2-(1H-indazol-4-yl)-4-morpholinothieno[3,2-d]pyrimidin-6-yl)methyl)piperazin-1-yl)-N-hydroxyheptanamide]: the melting point was in the range of 119 to 122 °C. Further, the negative-log IC50 (pIC50) in data set [1] was 6.00 to 7.00.
With `O=C(NO)c1cnc(N2CCN(Cc3cc4nc(-c5cccc6[nH]ncc56)nc(N5CCOCC5)c4s3)CC2)nc1` [Compound 14, 2-(4-((2-(1H-indazol-4-yl)-4-morpholinothieno[3,2-d]pyrimidin-6-yl)methyl)piperazin-1-yl)-N-hydroxypyrimidine-5-carboxamide], the melting point was 209 to 221 °C. The compound further gave a pIC50 in data set [1] of over 7.00.
In turn, `O=C(NO)c1cnc(N2CCC(CNCc3cc4nc(-c5cccc6[nH]ncc56)nc(N5CCOCC5)c4s3)CC2)nc1` [Compound 15, 2-(4-(((2-(1H-indazol-4-yl)-4-morpholinothieno[3,2-d]pyrimidin-6-yl)methylamino)methyl)piperidin-1-yl)-N-hydroxypyrimidine-5-carboxamide] yielded a melting point of 170 to 172 °C. This compound also had a negative-log IC50 (pIC50) in data set [1] of over 7.00.
For `CN(Cc1cc2nc(-c3cccc4[nH]ncc34)nc(N3CCOCC3)c2s1)CC1CCN(c2ncc(C(=O)NO)cn2)CC1` [Compound 16, 2-(4-((((2-(1H-indazol-4-yl)-4-morpholinothieno[3,2-d]pyrimidin-6-yl)methyl)(methyl)amino)methyl)piperidin-1-yl)-N-hydroxypyrimidine-5-carboxamide], in that order: 174 to 175 °C and 6.00 to 7.00.
The corresponding values for `CS(=O)(=O)N1CCN(Cc2cc3nc(-c4cccc5[nH]ncc45)nc(N4CCN(CCCCC(=O)NO)CC4)c3s2)CC1` [Compound 30, 5-(4-(2-(1H-indazol-4-yl)-6-((4-(methylsulfonyl)piperazin-1-yl)methyl)thieno[3,2-d]pyrimidin-4-yl)piperazin-1-yl)-N-hydroxypentanamide] are 142 to 145 °C and 6.00 to 7.00.
For `CS(=O)(=O)N1CCN(Cc2cc3nc(-c4cccc5[nH]ncc45)nc(N4CCN(CCCCCC(=O)NO)CC4)c3s2)CC1` [Compound 31, 6-(4-(2-(1H-indazol-4-yl)-6-((4-(methylsulfonyl)piperazin-1-yl)methyl)thieno[3,2-d]pyrimidin-4-yl)piperazin-1-yl)-N-hydroxyhexanamide], in that order: 140 to 145 °C and 6.00 to 7.00.
Regarding `CS(=O)(=O)N1CCN(Cc2cc3nc(-c4cccc5[nH]ncc45)nc(N4CCN(CCCCCCC(=O)NO)CC4)c3s2)CC1` [Compound 32, 7-(4-(2-(1H-indazol-4-yl)-6-((4-(methylsulfonyl)piperazin-1-yl)methyl)thieno[3,2-d]pyrimidin-4-yl)piperazin-1-yl)-N-hydroxyheptanamide], the melting point was 131 to 134 °C. The same compound had a pIC50 in data set [1] of 6.00 to 7.00.
On to `O=C(CCCNCc1cc2nc(-c3cccc4[nH]ncc34)nc(N3CCOCC3)c2s1)NO` [Compound 41, 4-((2-(1H-indazol-4-yl)-4-morpholinothieno[3,2-d]pyrimidin-6-yl)methylamino)-N-hydroxybutanamide], for which the melting point is 149 to 152 °C. Further, the negative logarithm of the IC50 (pIC50) in data set [1] is over 7.00.
The compound `O=C(CCCCNCc1cc2nc(-c3cccc4[nH]ncc34)nc(N3CCOCC3)c2s1)NO` [Compound 42, 5-((2-(1H-indazol-4-yl)-4-morpholinothieno[3,2-d]pyrimidin-6-yl)methylamino)-N-hydroxypentanamide] returned a melting point of 145 to 147 °C. Moreover, the pIC50 in data set [1] was over 7.00.
`O=C(CCCCCNCc1cc2nc(-c3cccc4[nH]ncc34)nc(N3CCOCC3)c2s1)NO` [Compound 43, 6-((2-(1H-indazol-4-yl)-4-morpholinothieno[3,2-d]pyrimidin-6-yl)methylamino)-N-hydroxyhexanamide] showed a melting point of 128 to 130 °C. Also, in data set [1], the pIC50 is over 7.00.
The corresponding values for `O=C(CCCCCCNCc1cc2nc(-c3cccc4[nH]ncc34)nc(N3CCOCC3)c2s1)NO` [Compound 44, 7-((2-(1H-indazol-4-yl)-4-morpholinothieno[3,2-d]pyrimidin-6-yl)methylamino)-N-hydroxyheptanamide] are 188 to 190 °C and 6.00 to 7.00.
Compound `O=C(NO)c1ccc(NCc2cc3nc(-c4cccc5[nH]ncc45)nc(N4CCOCC4)c3s2)cc1` [Compound 78, 4-((2-(1H-indazol-4-yl)-4-morpholinothieno[3,2-d]pyrimidin-6-yl)methylamino)-N-hydroxybenzamide] showed a melting point of 180 to 183 °C. For the same compound, in data set [1], the pIC50 is over 7.00.
The corresponding values for `O=C(/C=C/c1ccc(NCc2cc3nc(-c4cccc5[nH]ncc45)nc(N4CCOCC4)c3s2)cc1)NO` [Compound 80, (E)-3-(4-((2-(1H-indazol-4-yl)-4-morpholinothieno[3,2-d]pyrimidin-6-yl)methylamino)phenyl)-N-hydroxyacrylamide] are over 300 °C and 6.00 to 7.00.
As to `CN(Cc1cc2nc(-c3cccc4[nH]ncc34)nc(N3CCOCC3)c2s1)c1ccc(/C=C/C(=O)NO)cc1` [Compound 81, (E)-3-(4-(((2-(1H-indazol-4-yl)-4-morpholinothieno[3,2-d]pyrimidin-6-yl)methyl)(methyl)amino)phenyl)-N-hydroxyacrylamide], the melting point fell in the range of 188 to 190 °C. In data set [1], this compound gave a pIC50 of 5.00 to 6.00.
Compound `CC(C)(C)CN(Cc1cc2nc(-c3cccc4[nH]ncc34)nc(N3CCOCC3)c2s1)c1ncc(C(=O)NO)cn1` [Compound 83, 2-(((2-(1H-indazol-4-yl)-4-morpholinothieno[3,2-d]pyrimidin-6-yl)methyl)(neopentyl)amino)-N-hydroxypyrimidine-5-carboxamide] came in with a melting point of 240 to 242 °C. The compound also had a negative logarithm of the IC50 (pIC50) in data set [1] of 5.00 to 6.00.
The corresponding values for `CCCN(Cc1cc2nc(-c3cccc4[nH]ncc34)nc(N3CCOCC3)c2s1)c1ncc(C(=O)NO)cn1` [Compound 84, 2-(((2-(1H-indazol-4-yl)-4-morpholinothieno[3,2-d]pyrimidin-6-yl)methyl)(propyl)amino)-N-hydroxypyrimidine-5-carboxamide] are 224 to 226 °C and over 7.00.
`CCCCN(Cc1cc2nc(-c3cccc4[nH]ncc34)nc(N3CCOCC3)c2s1)c1ncc(C(=O)NO)cn1` [Compound 85, 2-(((2-(1H-indazol-4-yl)-4-morpholinothieno[3,2-d]pyrimidin-6-yl)methyl)(butyl)amino)-N-hydroxypyrimidine-5-carboxamide] yielded a melting point of 234 to 236 °C. In data set [1], this compound had a pIC50 of over 7.00.
The corresponding values for `CC(C)CN(Cc1cc2nc(-c3cccc4[nH]ncc34)nc(N3CCOCC3)c2s1)c1ncc(C(=O)NO)cn1` [Compound 93, 2-(((2-(1H-indazol-4-yl)-4-morpholinothieno[3,2-d]pyrimidin-6-yl)methyl)(isobutyl)amino)-N-hydroxypyrimidine-5-carboxamide] are 196 to 198 °C and 6.00 to 7.00.
The corresponding values for `CN(CCCC(=O)NO)Cc1cc2nc(-c3cccc4[nH]ncc34)nc(N3CCOCC3)c2s1` [Compound 101, 4-(((2-(1H-indazol-4-yl)-4-morpholinothieno[3,2-d]pyrimidin-6-yl)methyl)(methyl)amino)-N-hydroxybutanamide] are 115 to 118 °C and under 5.00.
For `CN(CCCCC(=O)NO)Cc1cc2nc(-c3cccc4[nH]ncc34)nc(N3CCOCC3)c2s1` [Compound 102, 5-(((2-(1H-indazol-4-yl)-4-morpholinothieno[3,2-d]pyrimidin-6-yl)methyl)(methyl)amino)-N-hydroxypentanamide], in that order: 120 to 122 °C and 6.00 to 7.00.
With `CN(CCCCCC(=O)NO)Cc1cc2nc(-c3cccc4[nH]ncc34)nc(N3CCOCC3)c2s1` [Compound 103, 6-(((2-(1H-indazol-4-yl)-4-morpholinothieno[3,2-d]pyrimidin-6-yl)methyl)(methyl)amino)-N-hydroxyhexanamide], the melting point was in the range of 115 to 118 °C. Further, the pIC50 in data set [1] was over 7.00.
For `CN(CCCCCCC(=O)NO)Cc1cc2nc(-c3cccc4[nH]ncc34)nc(N3CCOCC3)c2s1` [Compound 104, 7-(((2-(1H-indazol-4-yl)-4-morpholinothieno[3,2-d]pyrimidin-6-yl)methyl)(methyl)amino)-N-hydroxyheptanamide], in that order: 131 to 133 °C and 6.00 to 7.00.
The compound `CC(=O)Nc1cccc(-c2nc(N3CCOCC3)c3sc(CN(C)c4ncc(C(=O)NO)cn4)cc3n2)c1` [Compound 107, 2-(((2-(3-acetamidophenyl)-4-morpholinothieno[3,2-d]pyrimidin-6-yl)methyl)(methyl)amino)-N-hydroxypyrimidine-5-carboxamide] yielded a melting point of 183 to 185 °C. The compound also had a pIC50 in data set [1] of over 7.00.
For `CN(C)c1cccc(-c2nc(N3CCOCC3)c3sc(CN(C)c4ncc(C(=O)NO)cn4)cc3n2)c1` [Compound 108, 2-(((2-(3-(dimethylamino)phenyl)-4-morpholinothieno[3,2-d]pyrimidin-6-yl)methyl)(methyl)amino)-N-hydroxypyrimidine-5-carboxamide], in that order: 172 to 175 °C and over 7.00.

Values taken from US8906909B2 (Curis, Inc., priority 2009, dated 2014).
